Values quoted from earlier work in patent US20060191043A1, “Low maintenance turfgrass” (priority 2004, published 2006).
pKi: −log10 of the molar value.

What was measured:
[1] = molecular target: glyphosate-resistant EPSPS isolate having a single amino acid substitution of an alanine for the glycine at position 96 (Escherichia coli, UniProt P0A6D3, G96A); settings: alanine for glycine at position 96, read-out: apparent Ki for glyphosate
[2] = molecular target: native EPSPS from E. coli (Escherichia coli, UniProt P0A6D3); settings: read-out: apparent Km for PEP
Chain of native EPSPS from E. coli (P0A6D3 whole entry): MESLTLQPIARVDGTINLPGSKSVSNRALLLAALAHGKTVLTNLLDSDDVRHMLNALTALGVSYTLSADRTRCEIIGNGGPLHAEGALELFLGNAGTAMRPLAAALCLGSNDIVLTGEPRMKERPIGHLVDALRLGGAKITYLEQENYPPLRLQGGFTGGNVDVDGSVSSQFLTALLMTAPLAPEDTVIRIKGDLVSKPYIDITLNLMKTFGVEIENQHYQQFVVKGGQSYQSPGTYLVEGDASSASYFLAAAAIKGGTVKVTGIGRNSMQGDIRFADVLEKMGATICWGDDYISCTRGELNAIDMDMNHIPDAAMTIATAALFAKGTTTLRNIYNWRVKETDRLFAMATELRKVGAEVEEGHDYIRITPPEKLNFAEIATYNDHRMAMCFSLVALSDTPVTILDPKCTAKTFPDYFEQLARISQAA

Chain of glyphosate-resistant EPSPS isolate having a single amino acid substitution of an alanine for the glycine at position 96 (P0A6D3 whole entry G96A): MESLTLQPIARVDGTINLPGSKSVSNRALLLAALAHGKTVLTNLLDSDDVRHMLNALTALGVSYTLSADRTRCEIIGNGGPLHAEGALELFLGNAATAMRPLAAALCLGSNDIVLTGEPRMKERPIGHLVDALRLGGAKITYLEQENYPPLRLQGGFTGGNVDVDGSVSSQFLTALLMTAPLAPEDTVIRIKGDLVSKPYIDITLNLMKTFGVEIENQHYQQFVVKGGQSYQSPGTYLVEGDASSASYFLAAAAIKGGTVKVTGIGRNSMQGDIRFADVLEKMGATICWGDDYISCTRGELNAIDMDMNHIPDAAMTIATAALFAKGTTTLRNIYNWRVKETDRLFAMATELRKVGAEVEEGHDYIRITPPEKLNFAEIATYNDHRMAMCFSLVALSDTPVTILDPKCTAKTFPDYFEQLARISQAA

Row | SMILES | pKi [1] | Km [2] [µM]
1 | O=C(O)CNCP(=O)(O)O [glyphosate, N-phosphonomethylglycine] | 2.40 | –
2 | C=C(OP(=O)(O)O)C(=O)O [PEP] | – | 10
